Measurements: paper PMC12509006, “Synthesis and Evaluation of Pyridine-Based Antibacterial Agents that Inhibit ATP Synthase in Acinetobacter baumannii” (ACS Omega, 2025)
Converted amounts (≈) assume the structure as drawn. Read-outs that look alike come from different tables or passages of the source.

Key:
[1] = molecular target: T1, A. baumannii ATP synthase (Acinetobacter baumannii, UniProt A3M139); test: AB ATP synthase inhibition: NADH-driven ATP synthesis in inverted inner membrane vesicles, luciferin/luciferase readout; assay type: biochemical; settings: for Hill coefficient (Hill slope): fit of ATP synthesis dose response curve
T1 construct: endogenous electron transport chains of inverted inner membrane vesicles were energized with NADH; endogenous in cells; host or cells: inverted inner membrane vesicles prepared from A. baumannii ATCC 17978 cells
Method: Once synthesized, the pyridine compounds were tested for their ability to inhibit ATP synthase activity using our previously reported luciferin/luciferase assay. Briefly, endogenous electron transport chains of inverted inner membrane vesicles were energized with NADH to generate a proton gradient and to drive ATP synthesis. ATP was measured via luminescence from the luciferase-catalyzed oxidation of D-luciferin. Luminescence activities across increasing inhibitor concentrations were corrected for gradient independent background sources of ATP by comparison with a control containing the protonophore CCCP (carbonyl cyanide 3-chlorophenylhydrazone). The data were then fit to a four-parameter logistic dose–response curve, from which IC50 values and Hill coefficients were determined using a nonlinear least-squares regression.
A. baumannii (ATCC 17978) cells were grown in LB medium at 37 °C with shaking at 150 rpm and harvested by centrifugation in the late exponential phase of growth. Cells were resuspended in TMG buffer (50 mM Tris-HCl, pH 7.5, 5 mM MgCl2, 10% v/v glycerol) with 1 mM phenylmethanesulfonyl fluoride, 1 mM dithiothreitol, and a small amount of DNase and lysed by two passes through an Avestin B15 homogenizer at 19,000 psi. Lysate was cleared by centrifugation at 9000g and inverted membrane vesicles were collected from the supernatant by centrifugation at 169,000g. To reduce background ATP synthesis activity in AB vesicles, it was important to wash the membranes by resuspending in TMG buffer and centrifuging again at 169,000g. Washed pellets were resuspended in TMG buffer, and aliquots were stored at −80 °C. Once thawed, aliquots were not refrozen. Protein concentration in membrane vesicles was determined using a modified Lowry assay.
In vitro ATP synthesis activity of inverted inner membrane vesicles was measured as previously described. A reaction solution was prepared containing 5 mM tricine-KOH, pH 8.0, 50 mM KCl, 2.5 mM MgCl2, 0.1 mM adenosine diphosphate, 3.75 mM potassium phosphate, and 2.5 mM NADH and distributed into a 96-well plate. NADH-driven ATP synthesis was initiated by addition of inverted vesicles to 50 μg/mL and allowed to proceed for 10 min. The reaction was stopped by transferring an aliquot into 1% trichloroacetic acid. The stopped reaction was diluted 100-fold with deionized water and a sample was transferred to luciferase solution containing 25 mM tricine-NaOH, pH 7.8, 5 mM MgSO4, 0.1 mM EDTA, 0.1 mM NaN3, 150 μg/mL luciferin, and 7.5 μg/mL luciferase. Luminescence was measured in an opaque white 96-well plate using a BioTek H1 multimode plate reader. Each replicate set included a positive control containing DMSO with no compound and a negative control containing carbonyl cyanide 3-chlorophenylhydrazone (CCCP). Luminescence values were corrected for background by subtracting the CCCP control and normalized to the luminescence of the DMSO control. Normalized activity was fit using a variable-slope dose response curve. Nonlinear regression, including prediction of 95% confidence bands, and pairwise comparisons of fits using the F-test method were completed using GraphPad Prism10. Relativeactivity=1/1+(c/IC50)^Hillslope […]
Figure S1. ATP synthesis inhibition by all pyridine compounds in order of WSA compound number. ATP synthesis activities in inverted inner membrane vesicles prepared from AB cells were measured in the presence of 0.0625-64 µg/mL, corrected for background ATP, and normalized to activity with DMSO alone (see methods). For each plot, dots are normalized activities at each concentration (n≥3) on a log 2 scale, solid lines are fitted dose response curves, and dashed lines show the 95% confidence range of the fit. IC50

[2] = tested on: HEK 293 cells; test: XTT cell viability cytotoxicity assay; settings: n = 3, 24 h treatment
[3] = tested on: AB BAA 1605; test: Checkerboard assay with colistin sulfate, BAA 1605; settings: for MIC: Acinetobacter baumannii, BAA1605, read-out: MIC alone, AB BAA 1605; for fold change of MIC, AB BAA 1605: alone vs +colistin; for fractional inhibitory concentration index (FICI) / interaction with colistin, MDR AB BAA 1605: synergistic FICI ≤ 0.5, additivity FICI 0.5 < x < 1
Method: (§1) Synthesized compounds in DMSO (2–128 μg/mL, row G-A) were combined with colistin sulfate in ultra purified water (0.125–32 μg/mL, column 2–10) in a 96-well microtiter plate checkerboard assay against ATCC 17978 and BAA-1605 (MDR). Briefly, liquid cultures of bacteria were grown for 14–16 h by inoculating a single bacterial culture into 10 mL TSB. To each well 88 μL of TSB, 10 μL of bacteria culture, and 1 from each master plate was added (see layout below). Plates were covered and incubated at 37 °C for 12–18 h.

[4] = tested on: AB ATCC 17978; test: Checkerboard assay with colistin sulfate, ATCC 17978; settings: for MIC: Acinetobacter baumannii, ATCC17978, read-out: MIC alone, AB ATCC 17978; for fold change of MIC, AB ATCC 17978: alone vs +colistin; for fractional inhibitory concentration index (FICI) / interaction with colistin, AB ATCC 17978: synergistic FICI ≤ 0.5, additivity FICI 0.5 < x < 1
Method: as §1

[5] = tested on: MDR AB BAA 1605; test: Broth microdilution antimicrobial susceptibility assay, MDR isolate; settings: Acinetobacter baumannii, BAA1605, read-out: MIC, MDR AB BAA 1605
[6] = tested on: AB ATCC 17978; test: Broth microdilution antimicrobial susceptibility assay, susceptible isolate; settings: Acinetobacter baumannii, ATCC17978, read-out: MIC, AB ATCC 17978
[7] = tested on: AB electron transport chain (ETC); test: AB electron transport chain inhibition: NADH-driven H+ pumping, ACMA fluorescence quenching; assay type: biochemical, Acinetobacter baumannii; settings: at 2 μg/mL compound
Method: To ensure that the pyridine analogs were selectively inhibiting AB ATP synthase, each analog was also evaluated for inhibition of the AB electron transport chain (ETC) at 2 μg/mL using a standard protocol. − Briefly, respiratory dehydrogenase complexes were energized with NADH to initiate redox-driven H^+ pumping into the vesicle lumen, which was in turn detected by the quenching of 9-amino-6-chloro-2-methoxyacradine fluorescence. Most compounds were tested at concentrations of 2 μg/mL to establish whether ETC inhibition occurred in the same range as ATP synthase inhibition (Figure S2).
NADH-driven proton pumping activity in inverted membrane vesicles was measured as previously described. Briefly, vesicles were diluted to 0.5 mg/mL in HMK buffer (50 mM HEPES, 2 mM MgCl2, 300 mM KCl, pH 7.5) with 0.3 μg/mL 9-amino-6-chloro-2-methoxyacridine (ACMA) and distributed into wells of a black 96-well plate containing various concentrations of inhibitors dissolved in DMSO. ACMA fluorescence (λex = 415 nm, λem = 485 nm) was monitored using a BioTek H1 multimode plate reader. Proton pumping was initiated by addition of NADH to 0.8 mM and terminated by addition of nigericin to 0.5 μg/mL. Activity was defined as the percent quenching of fluorescence, where fluorescence values are normalized to the maximum fluorescence following the addition of nigericin.
Figure S2. Inhibition of the AB electron transport chain (ETC) by compounds at 2 µg/mL.
ETC H+-pumping activity in inverted inner membrane vesicles prepared from AB cells was determined by the quenching of ACMA dye upon initiation with NADH. Addition of nigericin returned fluorescence to baseline, and relative fluorescence quenching is defined as the minimum fluorescence over the maximum fluorescence after addition of nigericin. Relative ETC inhibition (bars) is the fraction of fluorescence quenching decreased by the presence of 2 µg/mL compound.
(1 picture or pasted object on this page, not shown here)

[8] = Figure 2, read-out: IC50, AB ATP synthase inhibition (converted)
[9] = inverted inner membrane vesicles, 0.0625-64 µg/mL, n≥3, Table S1, read-out: AB ATP Synthase Inhibition IC50 (converted)

T1 sequence (A3M139 whole entry): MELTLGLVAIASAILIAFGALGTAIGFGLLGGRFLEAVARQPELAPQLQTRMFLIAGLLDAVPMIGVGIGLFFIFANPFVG

| Compound | IC50 [1, 8] [nM] | Hill coefficient (Hill slope) [1] | MIC, HEK 293 (cytotoxicity) [2] [µg/mL] | MIC [3] [µg/mL] | fold change of MIC, AB BAA 1605 [3] | fractional inhibitory concentration index (FICI) / interaction with colistin, MDR AB BAA 1605 [3] | MIC +colistin, AB BAA 1605 ([3]; with 0.25 μg/mL colistin) | MIC [4] [µg/mL] | fold change of MIC, AB ATCC 17978 [4] | MIC +colistin, AB ATCC 17978 ([4]; with 0.25 μg/mL colistin) | MIC [5] [µg/mL] | MIC [6] [µg/mL] | MIC +colistin, AB BAA 1605 ([3]; with 0.125 μg/mL colistin) | MIC +colistin, AB ATCC 17978 ([4]; with 0.5 μg/mL colistin) | fractional inhibitory concentration index (FICI) / interaction with colistin, AB ATCC 17978 [4] | IC50 [1, 9] [nM] | ETC inhibition [7] [%] | MIC alone, AB BAA 1605 ([3]; without partner drug) [µg/mL] | MIC alone, AB ATCC 17978 ([4]; without partner drug) [µg/mL] |
| --- | --- | --- | --- | --- | --- | --- | --- | --- | --- | --- | --- | --- | --- | --- | --- | --- | --- | --- | --- |
| Fc1ccc(-c2cnc(SCc3ccccc3)c(CNCc3ccc(CN4CCCC4)cc3)c2)cc1 [WSA 298] | 1310 | -0.8 | 16 (≈ 32.1 µM) | 32 | 4 | synergy | 8 (0.25 μg/mL Col) | 16 | 2 | 8 (0.25 μg/mL Col) | 32 (≈ 64.3 µM) | 16 (≈ 32.1 µM) |  |  |  |  |  |  |  |
| Cc1ccc(-c2cnc(SCc3ccccc3)c(CNCCN3CCN(C)CC3)c2)cc1 [WSA 280] | 1540 | -0.8 | 16 (≈ 35.8 µM) | 32 | 2 |  |  | 16 | 2 |  | 32 (≈ 71.6 µM) | 16 (≈ 35.8 µM) | 16 (0.125 μg/mL Col) | 8 (0.5 μg/mL Col) |  |  |  |  |  |
| COc1ccc(-c2cnc(SCc3ccccc3)c(CNCCC3CCN(C4CCCC4)CC3)c2)cc1 [WSA 288] | 485 | -0.9 | 16 (≈ 31 µM) | 32 | 4 | synergy | 8 (0.25 μg/mL Col) | 16 | 4 |  | 32 (≈ 62 µM) | 16 (≈ 31 µM) |  |  | ≤ 0.5 |  |  |  |  |
| CN1CCN(CCNCc2cc(-c3ccc(F)cc3)cnc2SCc2ccccc2)CC1 [WSA 273] |  | -0.8 | 4 (≈ 8.88 µM) |  |  |  |  |  |  |  | 128 (≈ 284 µM) | 32 (≈ 71 µM) |  |  |  | 1890 | 40 |  |  |
| CN1CCN(CCNCc2cc(-c3ccc(N(C)C)cc3)cnc2SCc2ccccc2)CC1 [WSA 276] | 673 | -0.6 | 16 (≈ 33.6 µM) | 32 | 4 | synergy | 8 (0.25 μg/mL Col) | 16 | 2 |  | 32 (≈ 67.3 µM) | 16 (≈ 33.6 µM) |  | 8 (0.5 μg/mL Col) |  |  |  |  |  |
| Cc1ccc(-c2cnc(SCc3ccccc3)c(CNCCC3CCN(C4CCCC4)CC3)c2)cc1 [WSA 289] | 480 | -0.7 | 16 (≈ 32 µM) | 32 | 2 |  |  | 16 | 4 |  | 32 (≈ 64 µM) | 16 (≈ 32 µM) | 16 (0.125 μg/mL Col) |  | ≤ 0.5 |  |  |  |  |
| CN1CCN(CCNCc2cc(-c3ccc(F)cc3F)cnc2SCc2ccccc2)CC1 [WSA 274] |  | -0.8 | 4 (≈ 8.54 µM) |  |  |  |  |  |  |  | 128 (≈ 273 µM) | 32 (≈ 68.3 µM) |  |  |  | 1710 | 40 |  |  |
| Fc1ccc(-c2cnc(SCc3ccccc3)c(CNCCC3CCN(C4CCCC4)CC3)c2)cc1 [WSA 291] |  | -1.1 | <2 |  |  |  |  |  |  |  | 32 (≈ 63.5 µM) | 32 (≈ 63.5 µM) |  |  |  | 1190 |  |  |  |
| CCN1CCC(CCNCc2cc(-c3ccc(F)cc3F)cnc2SCc2ccccc2)CC1 [WSA 308] |  | -0.9 | 16 (≈ 33.2 µM) |  |  |  |  |  |  |  | 64 (≈ 133 µM) | 32 (≈ 66.4 µM) |  |  |  | 1810 |  |  |  |
| COc1ccc(-c2cnc(SCc3ccccc3)c(CNCc3ccc(CN4CCCC4)cc3)c2)cc1F [WSA 297] | 796 | -0.8 | 8 (≈ 15.2 µM) |  |  |  |  |  |  |  | 128 (≈ 243 µM) | 32 (≈ 60.6 µM) |  |  |  |  |  |  |  |
| colistin [reference compound] |  |  |  |  |  |  |  |  |  |  |  |  |  |  |  |  |  | 1 | 2 |
| c1ccc(CSc2ncc(-c3ccccc3)cc2CNCCC2CCN(C3CCCC3)CC2)cc1 [WSA 302] | 988 | -0.8 | 16 (≈ 32.9 µM) |  |  |  |  |  |  |  | 64 (≈ 132 µM) | 64 (≈ 132 µM) |  |  |  |  |  |  |  |
